A value given as a limit tells only on which side of the number the result lay.

This assay has as its target T1, Human autotaxin enzyme (Homo sapiens, UniProt Q13822).
T1 construct: purchased R&D System
Briefly: Evaluation of autotaxin inhibitor, Method C (Test Example 3): 18:0 Lyso PC, choline assay, Resorufin fluorescence. The format is biochemical. The note with it: Assay Method C (Test Example 3), human autotaxin, 18:0 Lyso PC substrate; read-out: Inhibitory Activity (autotaxin enzyme inhibitory activity, IC50 class). The essentials:
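Human autotaxin in Tris-HCl pH 7.5, 150 mM NaCl, 5 mM MgCl2, 0.05% Triton X-100 reacted 2 h at room temperature with 18:0 Lyso PC (200 μM solution added). Released choline detected via choline oxidase/peroxidase/Amplex-type reagent, resorufin fluorescence (ex 531/em 598 nm); inhibition vs no-compound and no-enzyme controls, concentration-response curve.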
Consider `CCCCCn1c(OC2CCN(CC(=O)O)CC2)cc(=O)n2cc(-c3ccc(Cl)cc3)nc12` [Compound 540], for which the IC50 lay in the range of 0.01 to 0.1 µM.
The figure for `CCCCCn1c(C2=CCN(C(=O)OC(C)(C)C)CC2)cc(=O)n2cc(-c3ccc(Cl)cc3)nc12` [Compound 541] is 0.1 to 1 µM; for `CCCCCn1c(OC2CCN(CCN3CCOCC3)CC2)cc(=O)n2cc(-c3ccc(Cl)cc3)nc12` [Compound 542] it is 0.1 to 1 µM.
The figure for `CCCCCn1c(OC2CN(C(=O)CN3CCOCC3)C2)cc(=O)n2cc(-c3ccc(Cl)cc3)nc12` [Compound 543] is 0.01 to 0.1 µM.
`CCCCCn1c(O[C@@H]2CO[C@H]3[C@@H]2OC[C@H]3O)cc(=O)n2cc(-c3ccc(Cl)cc3)nc12` [Compound 544]: the IC50 is 0.1 to 1 µM.
Consider `CCCCCn1c(C2=CCN(C(C)=O)CC2)cc(=O)n2cc(-c3ccc(Cl)cc3)nc12` [Compound 546], for which the IC50 lay within 0.01 to 0.1 µM.
The figure for `CCCCCn1c(C2=CCN(S(C)(=O)=O)CC2)cc(=O)n2cc(-c3ccc(Cl)cc3)nc12` [Compound 547] is 0.01 to 0.1 µM.
The figure for `CCCCCn1c(OC2CCN(CC(=O)N3CCOCC3)CC2)cc(=O)n2cc(-c3ccc(Cl)cc3)nc12` [Compound 548] is 0.1 to 1 µM.
On to `CCCCCn1c(O[C@H]2CCN(C(=O)OC(C)(C)C)C2)cc(=O)n2cc(-c3ccc(Cl)cc3)nc12` [Compound 549], for which the IC50 was 0.01 to 0.1 µM.
Consider `CCCCCn1c(O[C@@H]2CCN(C(=O)OC(C)(C)C)C2)cc(=O)n2cc(-c3ccc(Cl)cc3)nc12` [Compound 550], for which the IC50 was 0.1 to 1 µM.
Consider `CCCCCn1c(O[C@H]2C[C@@H](NC(=O)OC(C)(C)C)C2)cc(=O)n2cc(-c3ccc(Cl)cc3)nc12` [Compound 551], for which the IC50 fell in the range of 0.1 to 1 µM.
The figure for `CCCCCn1c(O[C@H]2C[C@H](NC(=O)OC(C)(C)C)C2)cc(=O)n2cc(-c3ccc(Cl)cc3)nc12` [Compound 552] is 0.1 to 1 µM; for `CCCCCn1c(OCC2CCN(C(=O)OC(C)(C)C)C2)cc(=O)n2cc(-c3ccc(Cl)cc3)nc12` (stereo not drawn) [Compound 553] it is 0.1 to 1 µM.
The figure for `CCCCCn1c(OCC2CCCN2C(=O)OC(C)(C)C)cc(=O)n2cc(-c3ccc(Cl)cc3)nc12` (stereo not drawn) [Compound 554] is 0.1 to 1 µM; for `CCCCCn1c(OC[C@H]2CCCN2C(=O)OC(C)(C)C)cc(=O)n2cc(-c3ccc(Cl)cc3)nc12` [Compound 555] it is 0.01 to 0.1 µM; for `CCCCCn1c(O[C@H]2CC[C@H](C(C)(C)C(=O)O)CC2)cc(=O)n2cc(-c3ccc(Cl)cc3)nc12` [Compound 556] it is 0.01 to 0.1 µM.
For the compound `CCCCCn1c(C2=CCC(C(=O)O)CC2)cc(=O)n2cc(-c3ccc(Cl)cc3)nc12` (stereo not drawn) [Compound 557], the half-maximal inhibitory concentration (IC50) lay within 0.01 to 0.1 µM.
The figure for `CCCCCn1c(OC)cc(=O)n2cc(-c3ccc(Cl)cc3)nc12` [Compound 558] is 0.1 to 1 µM; for `CCCCCn1c(N(CCC)C(C)=O)cc(=O)n2cc(-c3ccc(Cl)cc3)nc12` [Compound 560] it is 0.01 to 0.1 µM; for `CCCCCn1c(/N=C(\C)OCCC)cc(=O)n2cc(-c3ccc(Cl)cc3)nc12` [Compound 561] it is > 1 µM.
The figure for `CCCCCn1c(N(CCOCCOC)C(C)=O)cc(=O)n2cc(-c3ccc(Cl)cc3)nc12` [Compound 562] is 0.1 to 1 µM; for `CCCCCn1c(/N=C(\C)OCCCOCOC)cc(=O)n2cc(-c3ccc(Cl)cc3)nc12` [Compound 563] it is 0.1 to 1 µM; for `CCCCCn1c(N(CCCC(=O)OCC)C(C)=O)cc(=O)n2cc(-c3ccc(Cl)cc3)nc12` [Compound 564] it is 0.01 to 0.1 µM.
The figure for `CCCCCn1c(N(Cc2ccc(C(=O)OC)cc2)C(C)=O)cc(=O)n2cc(-c3ccc(Cl)cc3)nc12` [Compound 566] is 0.01 to 0.1 µM; for `CCCCCn1c(/N=C(\C)OCc2ccc(C(=O)OC)cc2)cc(=O)n2cc(-c3ccc(Cl)cc3)nc12` [Compound 567] it is > 1 µM.
Regarding `CCCCCn1c(N(Cc2ccc(C(=O)O)cc2)C(C)=O)cc(=O)n2cc(-c3ccc(Cl)cc3)nc12` [Compound 569], the IC50 was < 0.01 µM.
The figure for `CCCCCn1c(OC2CN(CCC(=O)O)C2)cc(=O)n2cc(-c3ccc(Cl)cc3)nc12` [Compound 570] is < 0.01 µM; for `CCCCCn1c(N2CCC[C@H]2C(=O)NCC(C)C(=O)OC)cc(=O)n2cc(-c3ccc(Cl)cc3)nc12` (stereo partly drawn) [Compound 571] it is 0.1 to 1 µM; for `CCCCCn1c(O[C@H]2CCNC2)cc(=O)n2cc(-c3ccc(Cl)cc3)nc12` [Compound 572] it is 0.01 to 0.1 µM.
Turning to `CCCCCn1c(O[C@H]2CCN(CC(=O)OC(C)(C)C)C2)cc(=O)n2cc(-c3ccc(Cl)cc3)nc12` [Compound 573], the IC50 lay in the range of 0.01 to 0.1 µM.
Turning to `CCCCCn1c(OC2CN(CC(=O)OC(C)(C)C)C2)cc(=O)n2cc(-c3ccc(Cl)cc3)nc12` [Compound 574], the IC50 fell in the range of 0.01 to 0.1 µM.
The figure for `CCCCCn1c(O[C@H]2CCN(CC(=O)O)C2)cc(=O)n2cc(-c3ccc(Cl)cc3)nc12` [Compound 575] is 0.01 to 0.1 µM; for `CCCCCn1c(O[C@H]2CCN(CCC(=O)O)C2)cc(=O)n2cc(-c3ccc(Cl)cc3)nc12` [Compound 576] it is 0.01 to 0.1 µM.
Turning to `CCCCCn1c(OC2CN(CC(=O)O)C2)cc(=O)n2cc(-c3ccc(Cl)cc3)nc12` [Compound 577], the IC50 was < 0.01 µM.
The figure for `CCCCCn1c(O[C@H]2CCN(CCC(=O)OC(C)(C)C)C2)cc(=O)n2cc(-c3ccc(Cl)cc3)nc12` [Compound 578] is 0.01 to 0.1 µM.
The figure for `CCCCCn1c(N2C[C@H](F)C[C@H]2C(=O)NCCC(=O)O)cc(=O)n2cc(-c3ccc(Cl)cc3)nc12` [Compound 579] is 0.01 to 0.1 µM; for `CCCCCn1c(N2C[C@@H](F)C[C@H]2C(=O)NCCC(=O)O)cc(=O)n2cc(-c3ccc(Cl)cc3)nc12` [Compound 580] it is < 0.01 µM; for `CCCCCn1c(N2C[C@H](O)C[C@H]2C(=O)NCCC(=O)O)cc(=O)n2cc(-c3ccc(Cl)cc3)nc12` [Compound 581] it is < 0.01 µM.
The figure for `CCCCCn1c(N2C[C@@H](O)C[C@H]2C(=O)NCCC(=O)O)cc(=O)n2cc(-c3ccc(Cl)cc3)nc12` [Compound 582] is < 0.01 µM; for `CCCCCn1c(N2C[C@H](F)C[C@H]2C(=O)NC(C)(C)CC(=O)O)cc(=O)n2cc(-c3ccc(Cl)cc3)nc12` [Compound 583] it is < 0.01 µM.
On to `CCCCCn1c(N2C[C@@H](F)C[C@H]2C(=O)NC(C)(C)CC(=O)O)cc(=O)n2cc(-c3ccc(Cl)cc3)nc12` [Compound 584], for which the IC50 is < 0.01 µM.
The figure for `CCCCCn1c(N2C[C@H](O)C[C@H]2C(=O)NC(C)(C)CC(=O)O)cc(=O)n2cc(-c3ccc(Cl)cc3)nc12` [Compound 585] is < 0.01 µM.
The figure for `CCCCCn1c(N2C[C@@H](O)C[C@H]2C(=O)NC(C)(C)CC(=O)O)cc(=O)n2cc(-c3ccc(Cl)cc3)nc12` [Compound 586] is < 0.01 µM; for `CCCCCn1c(N2C[C@H](F)C[C@H]2C(=O)O)cc(=O)n2cc(-c3ccc(Cl)cc3)nc12` [Compound 587] it is > 1 µM.
The figure for `CCCCCn1c(N2C[C@@H](F)C[C@H]2C(=O)O)cc(=O)n2cc(-c3ccc(Cl)cc3)nc12` [Compound 588] is 0.1 to 1 µM.
As to `CCCCCn1c(N2C[C@H](O)C[C@H]2C(=O)O)cc(=O)n2cc(-c3ccc(Cl)cc3)nc12` [Compound 589], the IC50 was > 1 µM.
`CCCCCn1c(N2C[C@@H](O)C[C@H]2C(=O)O)cc(=O)n2cc(-c3ccc(Cl)cc3)nc12` [Compound 590]: the IC50 fell in the range of 0.1 to 1 µM.
The figure for `CCCCCn1c(N2C[C@H](F)C[C@H]2C(=O)NCCC(=O)OCC)cc(=O)n2cc(-c3ccc(Cl)cc3)nc12` [Compound 591] is 0.1 to 1 µM; for `CCCCCn1c(N2C[C@@H](F)C[C@H]2C(=O)NCCC(=O)OCC)cc(=O)n2cc(-c3ccc(Cl)cc3)nc12` [Compound 592] it is 0.01 to 0.1 µM.
The figure for `CCCCCn1c(N2C[C@H](O)C[C@H]2C(=O)NCCC(=O)OCC)cc(=O)n2cc(-c3ccc(Cl)cc3)nc12` [Compound 593] is 0.01 to 0.1 µM; for `CCCCCn1c(N2C[C@@H](O)C[C@H]2C(=O)NCCC(=O)OCC)cc(=O)n2cc(-c3ccc(Cl)cc3)nc12` [Compound 594] it is 0.01 to 0.1 µM.
The figure for `CCCCCn1c(N2C[C@H](F)C[C@H]2C(=O)NC(C)(C)CC(=O)OCC)cc(=O)n2cc(-c3ccc(Cl)cc3)nc12` [Compound 595] is 0.1 to 1 µM.
As for `CCCCCn1c(N2C[C@@H](F)C[C@H]2C(=O)NC(C)(C)CC(=O)OCC)cc(=O)n2cc(-c3ccc(Cl)cc3)nc12` [Compound 596], the IC50 fell in the range of 0.01 to 0.1 µM.
The figure for `CCCCCn1c(N2C[C@H](O)C[C@H]2C(=O)NC(C)(C)CC(=O)OCC)cc(=O)n2cc(-c3ccc(Cl)cc3)nc12` [Compound 597] is 0.01 to 0.1 µM.
The figure for `CCCCCn1c(N2C[C@@H](O)C[C@H]2C(=O)NC(C)(C)CC(=O)OCC)cc(=O)n2cc(-c3ccc(Cl)cc3)nc12` [Compound 598] is 0.01 to 0.1 µM.
The figure for `CCCCCn1c(N2CCC[C@H]2CC(=O)O)cc(=O)n2cc(-c3ccc(Cl)cc3)nc12` [Compound 599] is 0.01 to 0.1 µM; for `CCCCCn1c(N2CCC[C@H](C(=O)O)C2)cc(=O)n2cc(-c3ccc(Cl)cc3)nc12` [Compound 600] it is < 0.01 µM; for `CCCCCn1c(NCCC(=O)O)cc(=O)n2cc(-c3ccc(Cl)cc3)nc12` [Compound 601] it is 0.1 to 1 µM.
For `CCCCCn1c(N(C)CC(=O)O)cc(=O)n2cc(-c3ccc(Cl)cc3)nc12` [Compound 602], the IC50 fell in the range of 0.1 to 1 µM.
With `CCCCCn1c(NCC(=O)NCC(=O)O)cc(=O)n2cc(-c3ccc(Cl)cc3)nc12` [Compound 603], the IC50 was 0.1 to 1 µM.
The figure for `CCCCCn1c(N2CCCC[C@H]2C(=O)O)cc(=O)n2cc(-c3ccc(Cl)cc3)nc12` [Compound 604] is 0.1 to 1 µM; for `CCCCCn1c(N2CCC[C@@H]2CC(=O)O)cc(=O)n2cc(-c3ccc(Cl)cc3)nc12` [Compound 605] it is 0.1 to 1 µM; for `CCCCCn1c(N2CCC[C@@]2(C)C(=O)O)cc(=O)n2cc(-c3ccc(Cl)cc3)nc12` [Compound 606] it is > 1 µM.

What is called IC50 is the concentration that gives 50% inhibition.

The values above are taken from patent US20160002247A1, “8-SUBSTITUTED IMIDAZOPYRIMIDINONE DERIVATIVE HAVING AUTOTAXIN INHIBITORY ACTIVITY” (THE UNIVERSITY OF TOKYO, priority 2013, published 2016).
